Experimental data reported in patent US9243247B2, “Composition for promoting apoptosis or inhibiting cell growth, comprising epstein-barr virus microrna” (Catholic University Industry Academic Cooperation Foundation, priority 2011, dated 2016).
“Also recorded” adds a separate entry of the source.

How the values were obtained:
Assay type in all cases: cell-based
BIRC6 protein = BIRC6 protein level by Western blotting; conditions: AGS; 48 hours after transfection; listed as miR-BART15-3p
Protocol: (§1) miR-BART15-3p was transfected to AGS by using lipofectamine-2000. Forty eight hours after the transfection, the cells were harvested and a QRT-PCR and a Western blotting were performed (FIGS. 12A and 12B). The BIRC6 mRNA level was not changed in the AGS to which miR-BART15-3p was transfected, while the protein level was decreased.
(§2) An miR-BART15-3p inhibitor was transfected to AGS-EBV by using lipofectamine-2000. Forty eight hours after the transfection, the cells were harvested and a QRT-PCR and a Western blotting were performed (FIGS. 12C and 12D). The BIRC6 mRNA level was not changed in the AGS-EBV to which an miR-BART15-3p inhibitor was transfected, while the protein level was increased.

AGS cell strain = test: Cell growth test (CCK-8 assay) after transfection of BART miRNA mimics; conditions: for Relative Cell Growth: relative to scrambled control (=1)
Method in brief: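 EBV-negative AGS gastric cells in RPMI1640 with 10% FBS, seeded 1×10^3 cells/well and transfected with synthetic mature BART miRNA mimics (10 nM; dose series 1, 3, 10, 30 nM) via G-fectin. Growth read by CCK-8 after 72 h (or over time), 2 h at 37 °C, absorbance measured.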

BIRC6 mRNA = BIRC6 mRNA level by QRT-PCR; conditions: AGS; 48 hours after transfection
Protocol: as §1, §2

3′UTR of BIRC6 = test: Dual luciferase reporter assay (psiCHECK) in HEK293T, BIRC6 3'UTR; conditions: for renilla value: 48 hours
Source text: (§3) For an miRNA target test, to psiCHECK, which is a luciferase vector (FIG. 9) specially designed for an miRNA target test including a firefly gene and a renilla gene in the same vector, a 3′UTR of the five genes shown in Table 5, which might be targeted by miR-BART15-3p, was individually cloned to prepare a vector for a target test for each of the genes.
(§4) HEK293T was divided into a 96-well plate such that 5×10^3 cells were allocated to each well, and miR-BART15-3p and a vector for a target test were transfected by using lipofectamine2000. Forty eight hours after the transfection, a dual luciferase reporter assay (Virology. 412(2), 392-400 (2011)) was performed to normalize the results with reference to firefly luciferase and observe a variation of the renilla luciferase gene expression. […] The renilla value was not decreased by […] which was formed by mutating a seed part of miR-BART15-3p (FIG. 10).
BIRC6 3′UTR included two target sites which might be hybridized with miR-BART15-3p. To verify whether these two sites are directly targeted by miR-BART15-3p, a point mutation was performed at a psiC-BIRC6 site which was seed-matched with miR-BART15-3p to prepare psiC-BIRC6m1 and psiC-BIRC6m2. Both of the sites were mutated to prepare psiC-BIRC6m1m2 (FIG. 11A).
HEK293T was divided into a 96-well plate such that 5×10^3 cells were allocated to each well, and miR-BART15-3p and a vector for a target test were transfected by using lipofectamine-2000. Forty eight hours after the transfection, a dual luciferase reporter assay (Virology. 412(2), 392-400 (2011)) was performed to normalize the results with reference to firefly luciferase and observe a variation of the renilla luciferase gene expression. The renilla value was not decreased in psiC-BIRC6m1 and psiC-BIRC6m1m2 by, while the renilla value was decreased in psiC-BIRC6m2 as in the case of psiC-BIRC6.

TAX1BP1 mRNA = TAX1BP1 mRNA level by QRT-PCR; conditions: AGS; after transfection; listed as miR-BART15-3p
Protocol: as §1
Different from BIRC6, the mRNA level of TAX1BP1 was decreased in the AGS to which miR-BART15-3p was transfected (FIG. 12E).

3′UTR of TAX1BP1 = test: Dual luciferase reporter assay (psiCHECK) in HEK293T, TAX1BP1 3'UTR; conditions: psiCHECK with TAX1BP1 3′UTR, 48 hours after transfection
Source text: as §3, §4

Question: Which BIRC6 protein level (BIRC6 protein) does the source give for “BART15-3p: EBV BART miRNA mimic, double stranded RNA; sense SEQ NO: 15, antisense SEQ NO: 16 (sense GUCAGUGGUUUUGUUUCCUUGA; antisense UCAAGGAAACAAAACCACUGAC; chemistry not given here)” here?
Answer: decrease

Question: What about the “cell growth lower than that of a scrambled control” value (AGS cell strain; 3 nM, 72 hours after transfection) of the same substance?
Answer: 50%

Question: And the cell growth (AGS cell strain; 10 nM, 72 hours after transfection)?
Answer: almost no cell growth

Question: And the cell growth (AGS cell strain; 30 nM, 72 hours after transfection)?
Answer: almost no cell growth

Question: And the “Relative Cell Growth” value (AGS cell strain; mimic 10 nM, 72 hours after transfection, n=9)?
Answer: 0.5676

Question: And the “Relative Cell Growth” value (AGS cell strain; mimic 10 nM, 72 hours after transfection, n=9, listed as miR-BART15-3p)?
Answer: inhibited cell growth

Question: What about the “cell growth over time” value (AGS cell strain; mimic 10 nM, depending on treatment time, listed as miR-BART15-3p) of the same substance?
Answer: greatly decreased cell growth; also recorded: inhibited cell growth almost entirely

Question: What about the “BIRC6 mRNA level” value (BIRC6 mRNA) of the same substance?
Answer: not changed

Question: What about the renilla value (3′UTR of BIRC6; psiC-BIRC6m1 (point mutation of site 1)) of the same substance?
Answer: not decreased

Question: What about the renilla value (3′UTR of BIRC6; psiC-BIRC6m1m2 (both sites mutated)) of the same substance?
Answer: not decreased

Question: What about the renilla value (3′UTR of BIRC6; psiC-BIRC6m2 (point mutation of site 2)) of the same substance?
Answer: decreased

Question: And the “renilla value (renilla luciferase, normalized to firefly)” value (3′UTR of BIRC6; psiCHECK with BIRC6 3′UTR (psiC-BIRC6), 48 hours after transfection, listed as miR-BART15-3p)?
Answer: decreased

Question: And the “mRNA level of TAX1BP1” value (TAX1BP1 mRNA)?
Answer: decrease

Question: And the “renilla value (renilla luciferase, normalized to firefly)” value (3′UTR of TAX1BP1)?
Answer: decrease
